Here are results for 3 compounds from paper PMC2858699, “Proteolysis of Human Thrombin Generates Novel Host Defense Peptides” (PLoS Pathogens, 2010).

Values after ≈ are worked out from the molar mass of the structure shown. Where a SMILES comes first, the peptide text is derived from it.

Assay [1] concerns E. coli Clinical isolate 47.1. It is filed as cell-based. The procedure: (§1) MIC assay was carried out by a microtiter broth dilution method as previously described in the NCSLA guidelines. Hemolysis, MTT, and LDH assays were performed as previously described (See Text S1).
(§2) MIC assay was carried out by a microtiter broth dilution method as previously described in the NCSLA guidelines (Wiegand, I., Hilpert, K. & Hancock, R.E. Agar and broth dilution methods to determine the minimal inhibitory concentration (MIC) of antimicrobial substances. Nat Protoc 3, 163-175 (2008)). In brief, fresh overnight colonies were suspended to a turbidity of 0.5 units and further diluted in Mueller-Hinton broth (Becton Dickinson). […] Ten µl of each concentration was added to each corresponding well of a 96-well microtiter plate (polypropylene, Costar Corp.) and 90 µl of bacteria (1x10^5) in MH medium added. The plate was incubated at 37 °C for 16-18 h. MIC was taken as the lowest concentration where no visual growth of bacteria was detected.
(§3) Table S2. […] The analysis was performed as described in Wiegand et al. and according to NCSLA guidelines. Additional clinical isolates were obtained from the Department of Bacteriology, Lund University Hospital. P. aeruginosa, E. coli and E. faecalis isolates were initially derived from patients with chronic ulcers, S. aureus from patients with atopic dermatitis. The S. pyogenes strain AP1 was from the WHO Collaborating Center for References and Research on Streptococci (Prague, Czech Republic).

For assay [2], the system named is P. aeruginosa Clinical isolate 51.1. It is filed as cell-based. As for the experimental part:
as §1, §2, §3

In assay [3] the test system is S. aureus Clinical isolate 1086. In kind it is cell-based. As for the experimental part: as §1, §2, §3
The subject of assay [4] is E. coli Clinical isolate 37.4. In kind it is cell-based. The procedure: as §1, §2, §3
For another assay, the system named is S. aureus ATCC 29213. It is filed as cell-based. As for the experimental part: as §1, §2, §3
For the next assay, the system named is P. aeruginosa ATCC 27853. It is filed as cell-based. As for the experimental part:
as §1, §2, §3

The next assay concerns S. pyogenes AP1. It is filed as cell-based. The procedure: as §1, §2, §3
Assay [5] deals with E. faecalis Clinical isolate 2374. It is filed as cell-based. The procedure: as §1, §2, §3
The test system of the next assay is S. aureus FDA 486. It is filed as cell-based. The procedure: as §1, §2, §3
Assay [6] has as its system P. aeruginosa Clinical isolate 62.1. It is filed as cell-based. The procedure:
as §1, §2, §3

Assay [7] deals with S. aureus Clinical isolate 16065. It is filed as cell-based. The procedure:
as §1, §2, §3

The subject of assay [8] is P. aeruginosa Clinical isolate 18488. It is filed as cell-based. The procedure: as §1, §2, §3
Assay [9] relates to S. aureus Clinical isolate 18800. In kind it is cell-based. The procedure:
as §1, §2, §3

Assay [10] concerns P. aeruginosa Clinical isolate 23.1. In kind it is cell-based. The procedure:
as §1, §2, §3

Assay [11] deals with E. coli Clinical isolate 49.1. In kind it is cell-based. The procedure:
as §1, §2, §3

Assay [12] concerns S. aureus Clinical isolate 1090. It is filed as cell-based. The procedure:
as §1, §2, §3

In assay [13] the test system is S. aureus Clinical isolate 18319. In kind it is cell-based. As for the experimental part: as §1, §2, §3
For assay [14], the system named is S. aureus Clinical isolate 14312. It is filed as cell-based. The procedure: as §1, §2, §3
For assay [15], the system named is P. aeruginosa Clinical isolate 13.2. In kind it is cell-based. As for the experimental part: as §1, §2, §3
Assay [16] has as its system P. aeruginosa Clinical isolate 15159. In kind it is cell-based. The procedure:
as §1, §2, §3

For assay [17], the system named is S. aureus Clinical isolate 13430. In kind it is cell-based. The procedure: as §1, §2, §3
Assay [18] concerns E. coli ATCC 25922. In kind it is cell-based. The procedure: as §1, §2, §3
The test system of assay [19] is P. aeruginosa Clinical isolate 10.5. In kind it is cell-based. The procedure: as §1, §2, §3
The subject of assay [20] is S. aureus Clinical isolate 1088. It is filed as cell-based. As for the experimental part:
as §1, §2, §3

Assay [21] has as its system P. aeruginosa Clinical isolate 27.1. It is filed as cell-based. As for the experimental part: as §1, §2, §3
Assay [22] in a line: Liposome leakage assay (carboxyfluorescein release).
Method: (E) Effects of the indicated peptides on liposome leakage. The membrane permeabilizing effect was recorded by measuring fluorescence release of carboxyfluorescein from PA (negatively charged) liposomes. The experiments were performed in 10 mM Tris-buffer, in absence and presence of 0.15 M NaCl. Values represents mean of triplicate samples.
Dry lipid films were prepared by dissolving either dioleoylphosphatidylethanolamine (Avanti Polar Lipids, Alabaster, AL) (70 mol%) and dioleoylphosphatidylglycerol (30 mol%) in chloroform, and then removing the solvent by evaporation under vacuum overnight. Subsequently, buffer solution containing 10 mM Tris, pH 7.4, either with or without additional 150 mM NaCl, was added together with 0.1 M carboxyfluorescein (CF) (Sigma). After hydration, the lipid mixture was subjected to eight freeze-thaw cycles consisting of freezing in liquid nitrogen and heating to 60°C. Unilamellar liposomes with a diameter of about 130 nm (as found with cryo-TEM; results not shown) were generated by multiple extrusions through polycarbonate filters (pore size 100 nm) mounted in a LipoFast miniextruder (Avestin). Untrapped carboxyfluorescein was then removed by filtration through two subsequent Sephadex G-50 columns with the relevant Tris buffer as eluent. […] The CF release was monitored by fluorescence at 520 nm from a liposome dispersion (10 mM lipid in 10 mM Tris pH 7.4). […]
Assay [23] deals with E. coli ATCC 25922. Kind of assay: Viable count assay. In kind it is cell-based. Particulars: E. coli ATCC 25922 2×10^6 cfu/ml, 50 µl, 10 mM Tris pH 7.4 with 5 mM glucose, 37°C 2 h; 3 and 6 µM.
Method: 2×10^6 cfu/ml of bacteria were incubated in 50 µl with proteins and peptides at a concentration of 3 and 6 µM, respectively.
E. coli ATCC 25922 bacteria were grown to mid-logarithmic phase in Todd-Hewitt (TH) medium. Bacteria were washed and re-suspended in 10 mM Tris, pH 7.4 containing 5 mM glucose. […] Serial dilutions of the incubation mixtures were plated on TH agar, followed by incubation at 37°C overnight and cfu determination.
The next assay has as its system E. coli. Kind of assay: Radial diffusion assay (RDA), low-salt conditions. In kind it is cell-based. The following applies: 6 µl per well (3.6 µg protein), not digested with neutrophil elastase. The procedure: Figure 1 Generation of antimicrobial peptides by degradation of prothrombin and thrombin. (A) Degradation of the proteins was performed at 37°C for the indicated time periods. RDA was performed in low-salt conditions using E. coli as test organism. Each 4 mm-diameter well was loaded with 6 µl of the solution (corresponding to 3.6 µg protein). The bar diagrams indicate the diameter of the zones of clearance obtained (in mm). The inset visualizes the results obtained with prothrombin. C, buffer; NE, neutrophil elastase only. LL-37 (100 µM) was included for comparison. (B) Intact prothrombin (PT) and thrombin (T), and cleavage products from the different incubations with neutrophil elastase (NE, indicated above) were analyzed by SDS-PAGE (16.5% Tris-Tricine gel). The gels are overloaded (12 µg) in order to visualize generation of fragments of low molecular masses. Rightmost two lanes show PT and T proteins at 2 µg.
Figure 2 Activities of peptides derived from prothrombin. (A) Sequence of prothrombin and overlapping peptides (indicated by numbers). In addition to the regular overlapping peptides, peptide regions of high net charge, and/or content of predicted helical regions (Agadir; http://www.embl-heidelberg.de/Services/serrano/agadir/agadir-start.html) were selected. […] (B) Overlapping peptides of prothrombin were analyzed for antimicrobial activities against E. coli. […]

In general, MIC refers to the smallest concentration in the dilution series that meets the test's criterion for growth inhibition. A high value points to a need for much substance.

In the case of `CC[C@H](C)[C@H](N)C(=O)N[C@@H](CC(C)C)C(=O)N[C@@H](CCCNC(=N)N)C(=O)N[C@@H](Cc1c[nH]c2ccccc12)C(=O)N1CCC[C@H]1C(=O)N[C@@H](Cc1c[nH]c2ccccc12)C(=O)N[C@@H](Cc1c[nH]c2ccccc12)C(=O)N1CCC[C@H]1C(=O)N[C@@H](Cc1c[nH]c2ccccc12)C(=O)N[C@@H](CCCNC(=N)N)C(=O)N[C@@H](CCCNC(=N)N)C(=O)N[C@@H](CCCCN)C(N)=O` [Omiganan] (H-ILRWPWWPWRRK-NH2), the MIC in assay [1] amounted to 20 µM (≈ 35.6 µg/mL); in assay [2], 80 µM (≈ 142 µg/mL); in assay [3], 10 µM (≈ 17.8 µg/mL); in assay [4], 20 µM (≈ 35.6 µg/mL); against S. aureus ATCC 29213, 10 µM (≈ 17.8 µg/mL); in the assay with P. aeruginosa ATCC 27853, 160 µM (≈ 285 µg/mL). For the same compound, the MIC is recorded as 5 µM (≈ 8.9 µg/mL) with S. pyogenes AP1; 160 µM (≈ 285 µg/mL) in [5]; 20 µM (≈ 35.6 µg/mL) with S. aureus FDA 486; 20 µM (≈ 35.6 µg/mL) in assay [6]; 5 µM (≈ 8.9 µg/mL) in assay [7]; 20 µM (≈ 35.6 µg/mL) in assay [8]. Besides, the MIC was found to be 2.5 µM (≈ 4.45 µg/mL) in [9]; 40 µM (≈ 71.2 µg/mL) in assay [10]; 10 µM (≈ 17.8 µg/mL) in assay [11]; 80 µM (≈ 142 µg/mL) in assay [12]; 20 µM (≈ 35.6 µg/mL) in [13]; 20 µM (≈ 35.6 µg/mL) in [14]. Also, the MIC in [15] was determined as 40 µM (≈ 71.2 µg/mL); in assay [16], 20 µM (≈ 35.6 µg/mL); in [17] it was 10 µM (≈ 17.8 µg/mL); against E. coli ATCC 25922 [18], 20 µM (≈ 35.6 µg/mL); in [19], 40 µM (≈ 71.2 µg/mL); in assay [20], 20 µM (≈ 35.6 µg/mL). The compound further gave an MIC in [21] greater than 160 µM.
Turning to VFRLKKWIQKVIDQFGE [VFR17], in assay [22] (negatively charged liposomes, 10 mM Tris pH 7.4, absence and presence of 0.15 M NaCl, triplicate), the “leakage of liposomes (carboxyfluorescein release)” value is on record as “induced leakage of liposomes”. For the same compound, in assay [22] (peptide at 1 µM, data not shown), the “time to reach ∼80% of the maximum leakage” value was no more than 200 s. Moreover, the “antibacterial activity in viable count assay” value in the assay with E. coli ATCC 25922 [23] is on record as “significant antibacterial activity”.
In the case of thrombin, the “antimicrobial activity in RDA, intact proteins” value in the assay with E. coli was “inactive”.
